Measured values taken from paper PMC7114229 (Antiviral Research, 2019).
Read-outs that look alike come from different tables or passages of the source.

How the values were obtained:
[1] = test system: EV71 VP1_S184T_ P246S (RES); assay type: cell-based
[2] = test system: EV71 BrCr laboratory-adapted strain; assay: Anti-EV71 assay, BrCr laboratory-adapted strain in RD cells; details: Enterovirus A
in vitro [3] = details: human
gp120 = gp120 (Human immunodeficiency virus type 1 group M subtype B, UniProt P03375); assay: biochemical; assay type: binding, HIV
HIV-2 (ROD) = assay: Anti-HIV-2 activity in MT-4 cell cultures
HIV-1 (NL4.3) = assay: Anti-HIV-1 activity in MT-4 cell cultures
in vitro [4] = details: human; remark: listed apart in the source
MT-4 cells = details: read-out: CC50 (MT-4); MT-4 cultures; host cell viability

With CCOC(=O)/C=C/[C@H](C[C@@H]1CCNC1=O)NC(=O)[C@@H](CC(=O)[C@@H](NC(=O)c1cc(C)on1)C(C)C)Cc1ccc(F)cc1 [Rupintrivir, rupintrivir] the “antiviral activity against the mutant virus strain” value ([1]; EV-71 variant (RES)) was “retained full antiviral activity”, the EC50 ([1]; read-out: VP1_S184T_ P246S (RES) EC50) was 16 ± 6 nM and the EC50 ([2]; EV71|EVA71, RD, read-out: EV-A71 BrCr (WT) EC50) was 14 ± 4 nM.
In the case of CCOC(=O)c1ccc(OCCC2CCN(c3ccc(C)nn3)CC2)cc1 [Pirodavir, pirodavir], the EC90 ([2]; EV71, RD, read-out: EV71 EC90) is reported as 600 ± 200 nM and the CC50 (in vitro [3]) is reported as > 100 µM.
For CN[C@@H]1[C@H](O[C@@H]2OC[C@@H](O)[C@H](O)[C@H]2O)[C@@H](O)[C@H](O[C@H]2c3cc(C)c(C(=O)N[C@H](C)C(=O)O)c(O)c3-c3c(cc4c(c3O)C(=O)c3cc(OC)cc(O)c3C4=O)[C@@H]2O)O[C@@H]1C [PRM-A, pradimycin A], the Kd (gp120; KD (10^−6) (M), apparent KD, SPR, three replicates) was 6.92e-06 M, the Kd (gp120; apparent KD for binding to gp120, SPR) was 6.9e-06 M and the kon (gp120; read-out: Ka (10^3) (1/M.s)) was 2760 ± 1000 M⁻¹ s⁻¹. The EC50 (HIV-2 (ROD); Human immunodeficiency virus 2, MT4, read-out: HIV-2 EC50) was 5900 ± 3700 nM, the EC50 (HIV-1 (NL4.3); Human immunodeficiency virus 1, MT4, read-out: HIV-1 EC50) was 3300 ± 1200 nM and the CC50 (in vitro [4]) was > 100 µM.
In the case of dextran sulfate-5000 [DS-5000], the CC50 (MT-4 cells) is reported as > 20 µM, the EC50 (HIV-2 (ROD); read-out: HIV-2 EC50, MT-4 cultures, inhibition of virus-induced cytopathicity by 50%) is reported as 30 ± 10 nM and the EC50 (HIV-1 (NL4.3); read-out: HIV-1 EC50, MT-4 cultures, inhibition of virus-induced cytopathicity by 50%) is reported as 70 ± 20 nM.
